Source: ChEMBL document CHEMBL4118147, “Structure-activity relationship of clovamide and its related compounds for the inhibition of amyloid β aggregation” (Bioorg Med Chem, 2018)
Activity calls are given as the source filed them. The rule behind the calls is not given here.

Tests used:
[1] = biological target: T1, Amyloid-beta precursor protein (Homo sapiens, UniProt P05067); assay: Inhibition of amyloid beta (1 to 42) (unknown origin) aggregation after 24 hrs by thioflavin T fluorescence assay
[2] = biological target: T1, Amyloid-beta precursor protein; assay: Inhibition of amyloid beta (1 to 42) (unknown origin) fibril formation after 24 hrs by silicotungstic acid staining based transmission electron microscopic analysis
[3] = biological target: T1, Amyloid-beta precursor protein; assay: Inhibition of amyloid beta (1 to 42) (unknown origin) fibril formation at 100 uM after 24 hrs by silicotungstic acid staining based transmission electron microscopic analysis

T1 sequence (P05067 whole entry): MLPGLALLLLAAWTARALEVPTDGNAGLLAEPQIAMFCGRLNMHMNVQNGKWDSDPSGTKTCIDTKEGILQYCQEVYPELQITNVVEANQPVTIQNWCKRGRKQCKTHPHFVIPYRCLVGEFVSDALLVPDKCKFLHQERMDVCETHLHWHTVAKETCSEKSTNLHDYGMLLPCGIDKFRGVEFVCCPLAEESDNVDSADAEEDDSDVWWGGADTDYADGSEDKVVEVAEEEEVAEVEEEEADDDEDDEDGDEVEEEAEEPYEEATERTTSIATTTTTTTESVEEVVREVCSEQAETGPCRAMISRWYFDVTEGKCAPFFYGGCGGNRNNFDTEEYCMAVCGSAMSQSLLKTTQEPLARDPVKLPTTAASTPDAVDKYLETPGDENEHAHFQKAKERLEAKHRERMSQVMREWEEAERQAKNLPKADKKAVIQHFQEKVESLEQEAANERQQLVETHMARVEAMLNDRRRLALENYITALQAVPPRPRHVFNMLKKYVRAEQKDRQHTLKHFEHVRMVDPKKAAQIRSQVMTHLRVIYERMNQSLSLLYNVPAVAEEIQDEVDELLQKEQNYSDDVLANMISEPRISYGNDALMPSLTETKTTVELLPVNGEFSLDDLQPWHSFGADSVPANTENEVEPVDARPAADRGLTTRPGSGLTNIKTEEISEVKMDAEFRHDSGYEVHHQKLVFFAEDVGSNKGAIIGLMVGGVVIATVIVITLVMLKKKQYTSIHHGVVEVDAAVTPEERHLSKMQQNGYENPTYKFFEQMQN

Row | SMILES | IC50 [1] | inhibition [1] | inhibition [2] | inhibition [3]
1 | O=C(/C=C/c1ccc(O)c(O)c1)N[C@H](Cc1ccc(O)c(O)c1)C(=O)O | 1.6 µM | Dose-dependent effect | Dose-dependent effect | –
2 | O=C(/C=C/c1ccccc1)N[C@@H](Cc1ccc(O)c(O)c1)C(=O)O | 22.7 µM | Dose-dependent effect | Dose-dependent effect | –
3 | O=C(/C=C/c1ccc(O)cc1)N[C@@H](Cc1ccc(O)cc1)C(=O)O | > 100 µM | – | – | inactive
4 | O=C(/C=C/c1ccc(O)c(O)c1)N[C@@H](Cc1ccccc1)C(=O)O | 72.9 µM | Dose-dependent effect | Dose-dependent effect | –
5 | O=C(CCc1ccc(O)c(O)c1)N[C@@H](Cc1ccc(O)c(O)c1)C(=O)O | 8.7 µM | Dose-dependent effect | Dose-dependent effect | –
6 | O=C(/C=C/c1ccc(O)cc1)N[C@@H](Cc1ccc(O)c(O)c1)C(=O)O | > 100 µM | – | – | inactive
7 | O=C(/C=C/c1ccccc1)N[C@@H](Cc1ccc(O)cc1)C(=O)O | > 100 µM | – | – | inactive
8 | O=C(/C=C/c1ccccc1)N[C@@H](Cc1ccccc1)C(=O)O | > 100 µM | – | – | inactive
9 | COC(=O)[C@H](Cc1ccc(O)c(O)c1)NC(=O)/C=C/c1ccc(O)c(O)c1 [N-CAFFEOYL-DOPA METHYL ESTER] | 4.9 µM | Dose-dependent effect | Dose-dependent effect | –
10 | O=C(/C=C/c1ccc(O)cc1)N[C@@H](Cc1ccccc1)C(=O)O | > 100 µM | – | – | inactive
11 | O=C(/C=C/c1ccc(O)c(O)c1)N[C@@H](Cc1ccc(O)cc1)C(=O)O | 87.8 µM | Dose-dependent effect | Dose-dependent effect | –
12 | O=C(/C=C/c1ccc(O)c(O)c1)N[C@@H](Cc1ccc(O)c(O)c1)C(=O)O | 5.7 µM | Dose-dependent effect | Dose-dependent effect | –
13 | COC(=O)[C@H](Cc1ccc(OC)c(OC)c1)NC(=O)/C=C/c1ccc(OC)c(OC)c1 | > 100 µM | – | – | inactive
